Measurements as given in US20210186970A1, “SELECTIVE CALCIUM CHANNEL ANTAGONISTS” (Northwestern University, priority 2011, published 2021).
Where two headings read alike, the source gives them in different places.

Key:
[1] = biological target: T1, Cav1.3 L-type Ca channels (Rattus norvegicus, UniProt P27732); experiment: FLIPR Fluo-8 calcium assay, Cav1.3 channel inhibition in HEK293 cells; format: cell-based
T1 construct: expressed in transfected cells; host or cells: HEK293

[2] = biological target: Cav1.2 L-type Ca channels (Oryctolagus cuniculus, UniProt P15381); experiment: FLIPR Fluo-8 calcium assay, Cav1.2 channel inhibition in HEK293 cells
[3] = IC50 (μM) CaV1.3, first library, FLIPR, HEK293, value (±SD)
[4] = IC50 (μM) Cav1.3, Table 4, 12 concentration points (0.1 nM~100 μM) in duplicate
[5] = Table 4, Cav1.3 relative to Cav1.2 from IC50 values
[6] = first library, ratio of IC50 Cav1.2 to Cav1.3
[7] = IC50 (μM) CaV1.2, first library, FLIPR, HEK293, value (±SD)
[8] = IC50 (μM) Cav1.2, Table 4, 12 concentration points (0.1 nM~100 μM) in duplicate
[9] = first library, FLIPR, HEK293, value (±SD), read-out: IC50 (μM) CaV1.3
[10] = IC50 (μM) Cav1.3, second library, FLIPR, HEK293, value (±SD)
[11] = second library, ratio of IC50 Cav1.2 to Cav1.3
[12] = IC50 (μM) Cav1.2, second library, FLIPR, HEK293, value (±SD)
[13] = IC50 (μM) Cav1.3, third library, FLIPR, HEK293, value (±SD)
[14] = third library, ratio of IC50 Cav1.2 to Cav1.3
[15] = IC50 (μM) Cav1.2, third library, FLIPR, HEK293, value (±SD)

T1 sequence (P27732 whole entry): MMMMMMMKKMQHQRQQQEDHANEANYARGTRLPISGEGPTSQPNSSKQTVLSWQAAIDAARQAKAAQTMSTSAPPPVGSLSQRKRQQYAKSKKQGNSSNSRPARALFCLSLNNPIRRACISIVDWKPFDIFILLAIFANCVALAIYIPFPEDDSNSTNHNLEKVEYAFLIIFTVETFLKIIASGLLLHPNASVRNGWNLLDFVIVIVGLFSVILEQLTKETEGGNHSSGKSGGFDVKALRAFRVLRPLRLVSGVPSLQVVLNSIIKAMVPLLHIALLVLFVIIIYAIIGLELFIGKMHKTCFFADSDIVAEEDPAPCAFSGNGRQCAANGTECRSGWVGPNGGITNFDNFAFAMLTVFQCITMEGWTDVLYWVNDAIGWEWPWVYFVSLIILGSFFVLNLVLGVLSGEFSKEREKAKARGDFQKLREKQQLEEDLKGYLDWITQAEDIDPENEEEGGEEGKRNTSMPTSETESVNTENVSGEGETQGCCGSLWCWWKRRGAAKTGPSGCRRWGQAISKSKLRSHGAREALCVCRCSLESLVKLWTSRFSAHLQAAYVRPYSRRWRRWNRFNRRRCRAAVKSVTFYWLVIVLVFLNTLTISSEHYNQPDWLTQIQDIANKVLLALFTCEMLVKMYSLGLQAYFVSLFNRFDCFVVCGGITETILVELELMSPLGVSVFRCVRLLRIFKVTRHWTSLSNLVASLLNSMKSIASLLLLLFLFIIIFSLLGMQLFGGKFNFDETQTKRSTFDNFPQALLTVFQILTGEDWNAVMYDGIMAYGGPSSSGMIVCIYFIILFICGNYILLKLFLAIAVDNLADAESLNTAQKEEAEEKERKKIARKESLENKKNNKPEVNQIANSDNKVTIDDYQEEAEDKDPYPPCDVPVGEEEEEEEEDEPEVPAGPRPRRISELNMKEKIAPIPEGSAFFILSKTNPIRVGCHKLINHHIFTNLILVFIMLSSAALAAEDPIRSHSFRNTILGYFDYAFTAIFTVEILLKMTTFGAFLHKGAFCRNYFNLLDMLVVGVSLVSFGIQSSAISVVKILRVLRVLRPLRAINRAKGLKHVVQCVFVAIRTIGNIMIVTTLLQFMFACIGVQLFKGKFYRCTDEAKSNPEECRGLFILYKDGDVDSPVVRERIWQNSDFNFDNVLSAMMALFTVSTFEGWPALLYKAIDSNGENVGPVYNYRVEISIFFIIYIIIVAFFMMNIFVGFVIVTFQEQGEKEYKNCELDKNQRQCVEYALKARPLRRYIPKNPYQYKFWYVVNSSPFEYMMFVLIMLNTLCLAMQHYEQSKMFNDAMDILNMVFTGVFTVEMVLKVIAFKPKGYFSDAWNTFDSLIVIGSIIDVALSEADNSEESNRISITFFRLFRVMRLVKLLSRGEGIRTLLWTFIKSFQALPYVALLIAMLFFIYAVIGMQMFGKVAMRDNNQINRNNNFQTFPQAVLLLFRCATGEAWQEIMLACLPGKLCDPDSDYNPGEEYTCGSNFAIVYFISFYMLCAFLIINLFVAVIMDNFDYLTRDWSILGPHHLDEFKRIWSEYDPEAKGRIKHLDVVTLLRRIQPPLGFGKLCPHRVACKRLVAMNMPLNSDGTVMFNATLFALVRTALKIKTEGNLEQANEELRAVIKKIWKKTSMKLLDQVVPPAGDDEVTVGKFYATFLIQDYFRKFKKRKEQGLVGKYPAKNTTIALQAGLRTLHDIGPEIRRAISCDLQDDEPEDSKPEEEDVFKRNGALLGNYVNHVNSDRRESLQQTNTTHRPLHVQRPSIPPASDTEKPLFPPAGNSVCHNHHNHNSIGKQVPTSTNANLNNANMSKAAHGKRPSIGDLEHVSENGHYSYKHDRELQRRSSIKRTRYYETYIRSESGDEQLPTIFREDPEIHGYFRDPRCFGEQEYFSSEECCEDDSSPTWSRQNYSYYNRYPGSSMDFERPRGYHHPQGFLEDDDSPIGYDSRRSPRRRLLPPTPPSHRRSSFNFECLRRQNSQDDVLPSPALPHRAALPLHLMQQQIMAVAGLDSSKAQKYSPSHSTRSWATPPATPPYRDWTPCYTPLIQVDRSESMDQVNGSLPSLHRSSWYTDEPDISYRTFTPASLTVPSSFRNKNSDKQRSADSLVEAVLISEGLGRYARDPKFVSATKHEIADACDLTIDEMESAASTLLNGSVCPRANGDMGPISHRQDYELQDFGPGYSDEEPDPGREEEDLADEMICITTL
T1 sequence (P54284 whole entry partner): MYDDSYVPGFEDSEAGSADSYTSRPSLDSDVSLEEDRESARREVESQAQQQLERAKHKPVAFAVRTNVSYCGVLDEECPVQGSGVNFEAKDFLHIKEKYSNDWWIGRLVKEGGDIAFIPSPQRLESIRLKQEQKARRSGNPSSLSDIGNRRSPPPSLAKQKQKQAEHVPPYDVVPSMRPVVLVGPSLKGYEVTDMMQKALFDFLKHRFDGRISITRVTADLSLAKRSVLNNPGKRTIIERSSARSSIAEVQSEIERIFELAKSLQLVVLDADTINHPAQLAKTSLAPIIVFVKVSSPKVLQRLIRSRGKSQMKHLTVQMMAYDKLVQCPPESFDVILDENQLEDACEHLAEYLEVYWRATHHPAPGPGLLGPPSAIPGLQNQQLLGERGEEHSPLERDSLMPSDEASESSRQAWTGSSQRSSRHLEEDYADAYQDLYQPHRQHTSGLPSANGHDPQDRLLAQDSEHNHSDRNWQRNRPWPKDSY
T1 sequence (P54289 25-956 partner limits assumed): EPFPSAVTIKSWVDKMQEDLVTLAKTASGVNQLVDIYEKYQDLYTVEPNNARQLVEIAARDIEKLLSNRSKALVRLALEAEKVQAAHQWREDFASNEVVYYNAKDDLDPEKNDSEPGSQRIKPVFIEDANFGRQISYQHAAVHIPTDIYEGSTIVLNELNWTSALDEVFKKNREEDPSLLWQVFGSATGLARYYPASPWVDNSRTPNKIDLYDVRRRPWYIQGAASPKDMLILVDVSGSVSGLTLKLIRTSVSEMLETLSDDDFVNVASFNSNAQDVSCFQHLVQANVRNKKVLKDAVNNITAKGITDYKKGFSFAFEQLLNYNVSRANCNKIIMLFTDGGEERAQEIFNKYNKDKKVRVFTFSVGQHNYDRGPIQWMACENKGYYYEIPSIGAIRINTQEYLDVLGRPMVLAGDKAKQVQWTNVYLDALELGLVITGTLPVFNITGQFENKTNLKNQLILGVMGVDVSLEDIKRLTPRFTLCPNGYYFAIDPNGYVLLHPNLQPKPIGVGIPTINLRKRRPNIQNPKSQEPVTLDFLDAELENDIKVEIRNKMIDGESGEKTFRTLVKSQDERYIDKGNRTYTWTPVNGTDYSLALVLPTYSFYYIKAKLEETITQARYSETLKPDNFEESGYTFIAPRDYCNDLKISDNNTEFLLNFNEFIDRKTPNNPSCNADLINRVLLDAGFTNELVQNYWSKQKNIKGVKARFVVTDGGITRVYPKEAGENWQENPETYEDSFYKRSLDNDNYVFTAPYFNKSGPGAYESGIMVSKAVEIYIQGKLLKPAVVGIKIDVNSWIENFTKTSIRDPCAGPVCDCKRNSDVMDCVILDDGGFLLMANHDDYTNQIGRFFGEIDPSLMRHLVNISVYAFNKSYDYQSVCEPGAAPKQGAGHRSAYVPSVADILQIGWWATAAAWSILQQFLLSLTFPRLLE
T1 sequence (P54289 957-1103 partner limits assumed): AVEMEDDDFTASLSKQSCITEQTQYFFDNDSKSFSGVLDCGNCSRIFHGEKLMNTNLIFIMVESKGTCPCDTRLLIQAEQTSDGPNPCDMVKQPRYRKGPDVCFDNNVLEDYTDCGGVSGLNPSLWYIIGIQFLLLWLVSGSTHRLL

O=C1CC(=O)N(C2CCCCC2)C(=O)N1CCc1ccc(Cl)cc1 [Compound 1, N-(4-chlorophenethyl)-N′-cyclohexyl-pyrimidine-2,4,6-(1H,3H,5H)-trione]
melting point: 146 to 148 °C
IC50 [1, 3]: 1.1 µM
IC50 [1, 4]: 1.1 µM
Selectivity [1, 5]: 35
Selectivity [1, 6]: 35.1
IC50 [2, 7]: 38.8 µM
IC50 [2, 8]: 38.8 µM

O=C1CC(=O)N(C2CCCC2)C(=O)N1CCCCc1ccccc1 [Compound 2, N-cyclopentyl-N′-(4-phenylbutyl)-pyrimidine-2,4,6-(1H,3H,5H)-trione]
melting point: 85 to 87 °C
IC50 [1, 3]: 1.3 µM
IC50 [1, 4]: 1.3 µM
Selectivity [1, 5]: 34
Selectivity [1, 6]: 33.7
IC50 [2, 7]: 43.8 µM
IC50 [2, 8]: 43.8 µM

O=C1CC(=O)N(CCc2cccc(F)c2)C(=O)N1CCCc1ccccc1 [Compound 56]
IC50 [1, 3]: 1.6 µM
Selectivity [1, 6]: 1.5
IC50 [2, 7]: 2.5 µM

O=C1CC(=O)N(Cc2cccc([N+](=O)[O-])c2)C(=O)N1CCCc1ccccc1 [Compound 57]
IC50 [1, 3]: 16.5 µM
Selectivity [1, 6]: 0.8
IC50 [2, 7]: 13 µM

O=C1CC(=O)N(CCc2cccc([N+](=O)[O-])c2)C(=O)N1CCCc1ccccc1 [Compound 58]
IC50 [1, 3]: 10.4 µM
Selectivity [1, 6]: 0.9
IC50 [2, 7]: 9.5 µM

O=C1CC(=O)N(Cc2ccc(Cl)cc2)C(=O)N1CCCc1ccccc1 [Compound 59]
IC50 [1, 3]: 21.9 µM
Selectivity [1, 6]: 1.2
IC50 [2, 7]: 26 µM

CCCCCCCCN1C(=O)CC(=O)N(CCCc2ccccc2)C1=O [Compound 60]
IC50 [1, 9]: 1.1 µM
Selectivity [1, 6]: 2.5
IC50 [2, 7]: 2.6 µM

O=C1CC(=O)N(CCc2ccc3ccccc3c2)C(=O)N1CCCc1ccccc1 [Compound 61]
IC50 [1, 3]: 1 µM
Selectivity [1, 6]: 1.3
IC50 [2, 7]: 1.2 µM

O=C1CC(=O)N(CCc2ccc3ccccc3c2)C(=O)N1CCc1ccc2ccccc2c1 [Compound 62]
IC50 [1, 3]: 2.9 µM
Selectivity [1, 6]: 0.6
IC50 [2, 7]: 1.8 µM

O=C1CC(=O)N(CCc2ccc3ccccc3c2)C(=O)N1CCc1ccc(Cl)c(Cl)c1 [Compound 63]
IC50 [1, 3]: 4 µM
Selectivity [1, 6]: 1.0
IC50 [2, 7]: 3.8 µM

O=C1CC(=O)N(CCc2ccc3ccccc3c2)C(=O)N1CCc1ccc(F)cc1 [Compound 64]
IC50 [1, 3]: 1.8 µM
Selectivity [1, 6]: 2.1
IC50 [2, 7]: 3.8 µM

O=C1CC(=O)N(Cc2cccc([N+](=O)[O-])c2)C(=O)N1CCc1ccc2ccccc2c1 [Compound 65]
IC50 [1, 3]: 4.8 µM
Selectivity [1, 6]: 1.0
IC50 [2, 7]: 5 µM

O=C1CC(=O)N(Cc2ccc(Cl)cc2)C(=O)N1CCc1ccc2ccccc2c1 [Compound 66]
IC50 [1, 3]: 1.7 µM
IC50 [2]: 2.4 µM

CCCCCCCCN1C(=O)CC(=O)N(CCc2ccc3ccccc3c2)C1=O [Compound 67]
IC50 [1, 9]: 1.9 µM
Selectivity [1, 6]: 4.8
IC50 [2, 7]: 8.9 µM

O=C1CC(=O)N(C2CCCCC2)C(=O)N1CCc1ccc(F)cc1 [Compound 68]
IC50 [1, 3]: 9.4 µM
Selectivity [1, 6]: 17.7
IC50 [2, 7]: 166 µM

Cc1ccc(CCN2C(=O)CC(=O)N(C3CCCCC3)C2=O)cc1 [Compound 74]
IC50 [1, 10]: 1.8 µM
Selectivity [1, 11]: 3.4
IC50 [2, 12]: 6.1 µM

O=C1CC(=O)N(C2CCCCC2)C(=O)N1CCc1ccccc1Cl [Compound 76]
IC50 [1, 10]: 5.2 µM
Selectivity [1, 11]: 7.7
IC50 [2, 12]: 44.5 µM

O=C1CC(=O)N(C2CCCCC2)C(=O)N1CCc1ccc(Br)cc1 [Compound 77]
IC50 [1, 10]: 0.8 µM
Selectivity [1, 11]: 26.4
IC50 [2, 12]: 21.3 µM

N#Cc1ccc(CCN2C(=O)CC(=O)N(C3CCCCC3)C2=O)cc1 [Compound 78]
IC50 [1, 10]: 49.8 µM
Selectivity [1, 11]: 1.1
IC50 [2, 12]: 56 µM

N#Cc1cccc(CCN2C(=O)CC(=O)N(C3CCCCC3)C2=O)c1 [Compound 79]
IC50 [1, 10]: 10.5 µM
Selectivity [1, 11]: 3.5
IC50 [2, 12]: 36.5 µM

COc1ccc(CN2C(=O)CC(=O)N(C3CCCCC3)C2=O)cc1 [Compound 81]
Selectivity [1]: 2.1
IC50 [1, 10]: 32.2 µM
IC50 [2, 12]: 67.8 µM

O=C1CC(=O)N(C2CCCCC2)C(=O)N1Cc1ccc(Cl)cc1 [Compound 82]
Selectivity [1]: 14.7
IC50 [1, 10]: 8.1 µM
IC50 [2, 12]: 119 µM

O=C1CC(=O)N(C2CCCCC2)C(=O)N1Cc1cccc([N+](=O)[O-])c1 [Compound 83]
IC50 [1, 10]: 48.2 µM
Selectivity [1, 11]: 1.2
IC50 [2, 12]: 59.5 µM

O=C1CC(=O)N(C2CCCCC2)C(=O)N1CCCc1ccccc1 [Compound 84]
IC50 [1, 10]: 6.3 µM
Selectivity [1, 11]: 4.9
IC50 [2, 12]: 30.5 µM

O=C1CC(=O)N(C2CCc3ccccc32)C(=O)N1C1CCCCC1 (stereo not shown) [Compound 85]
IC50 [1, 10]: 16.4 µM
Selectivity [1, 11]: 1.2
IC50 [2, 12]: 19.2 µM

O=C1CC(=O)N(C2CCCCC2)C(=O)N1CCOc1ccccc1 [Compound 88]
IC50 [1, 10]: 9.5 µM
Selectivity [1, 11]: 1.2
IC50 [2, 12]: 11.8 µM

O=C(O)c1cccc(CCN2C(=O)CC(=O)N(C3CCCCC3)C2=O)c1 [Compound 89]
IC50 [1, 10]: 73 µM
Selectivity [1, 11]: 0.9
IC50 [2, 12]: 64.7 µM

O=C1CC(=O)N(C2CCCCCC2)C(=O)N1CCc1cccc(C(F)(F)F)c1 [Compound 90]
IC50 [1, 13]: 1.7 µM
Selectivity [1, 14]: 3.4
IC50 [2, 15]: 5.7 µM

O=C1CC(=O)N(C2CCCCCC2)C(=O)N1CCc1cccc(Cl)c1 [Compound 91]
IC50 [1, 13]: 2.5 µM
Selectivity [1, 14]: 18.5
IC50 [2, 15]: 45.6 µM

O=C1CC(=O)N(C2CCCCCC2)C(=O)N1CCc1ccc(Cl)cc1 [Compound 92]
IC50 [1, 13]: 2.2 µM
Selectivity [1, 14]: 15.0
IC50 [2, 15]: 32.8 µM

Cc1cccc(CCN2C(=O)CC(=O)N(C3CCCCCC3)C2=O)c1 [Compound 93]
IC50 [1, 13]: 13.2 µM
Selectivity [1, 14]: 2.3
IC50 [2, 15]: 30.7 µM

Cc1ccc(CCN2C(=O)CC(=O)N(C3CCCCCC3)C2=O)cc1 [Compound 94]
IC50 [1, 13]: 0.9 µM
Selectivity [1, 14]: 16.0
IC50 [2, 15]: 14.9 µM

Cc1cccc(CCN2C(=O)CC(=O)N(C3CCCC3)C2=O)c1 [Compound 97]
IC50 [1, 13]: 1.1 µM
Selectivity [1, 14]: 49.1
IC50 [2, 15]: 52.1 µM

Cc1ccc(CCN2C(=O)CC(=O)N(C3CCCC3)C2=O)cc1 [Compound 98]
IC50 [1, 13]: 1.7 µM
Selectivity [1, 14]: 20.7
IC50 [2, 15]: 35.8 µM

O=C1CC(=O)N(C2CCC2)C(=O)N1CCc1cccc(Cl)c1 [Compound 99]
IC50 [1, 13]: 2.7 µM
Selectivity [1, 14]: 5.4
IC50 [2]: 14.6 µM

O=C1CC(=O)N(C2CCC2)C(=O)N1CCc1ccc(Cl)cc1 [Compound 100]
IC50 ([1]; third library, FLIPR, HEK293, value (±SD), read-out: IC50 (μM) Cav1.3): 1.8 µM
Selectivity [1, 14]: 2.8
IC50 [2, 15]: 4.9 µM

O=C1CC(=O)N(C2CC2)C(=O)N1CCc1cccc(Cl)c1 [Compound 101]
IC50 [1, 13]: 26.8 µM
Selectivity [1, 14]: 0.2
IC50 [2]: 5.4 µM

O=C1CC(=O)N(C2CC2)C(=O)N1CCc1ccc(Cl)cc1 [Compound 102]
IC50 [1, 13]: 19.6 µM
Selectivity [1, 14]: 0.3
IC50 [2]: 5 µM

O=C1CC(=O)N(c2cccc(F)c2)C(=O)N1CCc1cccc(Cl)c1 [Compound 103]
IC50 [1, 13]: 18.6 µM
Selectivity [1, 14]: 0.5
IC50 [2, 15]: 9.7 µM

CC(C)(C)N1C(=O)CC(=O)N(CCc2cccc(Cl)c2)C1=O [Compound 105]
IC50 [1, 13]: 10.5 µM
Selectivity [1, 14]: 0.7
IC50 [2]: 7.2 µM

CC(C)(C)N1C(=O)CC(=O)N(CCc2cccc(C(F)(F)F)c2)C1=O [Compound 106]
IC50 [1, 13]: 1.1 µM
Selectivity [1, 14]: 5.7
IC50 [2, 15]: 6.1 µM

CCC(C)N1C(=O)CC(=O)N(CCc2cccc(Cl)c2)C1=O (stereo not shown) [Compound 107]
IC50 [1, 13]: 1.9 µM
Selectivity [1, 14]: 23.6
IC50 [2]: 45.4 µM

CCC(C)N1C(=O)CC(=O)N(CCc2cccc(C(F)(F)F)c2)C1=O (stereo not shown) [Compound 108]
IC50 [1, 13]: 3.4 µM
Selectivity [1, 14]: 10.5
IC50 [2, 15]: 35.9 µM

O=C1CC(=O)N(CC2CCCCC2)C(=O)N1CCc1cccc(Cl)c1 [Compound 109]
IC50 [1, 13]: 1.5 µM
Selectivity [1, 14]: 30.5
IC50 [2, 15]: 44.6 µM

O=C1CC(=O)N(CC2CCCCC2)C(=O)N1CCc1ccc(Cl)cc1 [Compound 110]
IC50 [1, 13]: 1.7 µM
Selectivity [1, 14]: 27.3
IC50 [2, 15]: 46.8 µM

O=C1CC(=O)N(CC2CCCCC2)C(=O)N1CCc1cccc(C(F)(F)F)c1 [Compound 111]
IC50 [1, 13]: 0.9 µM
Selectivity [1, 14]: 22.1
IC50 [2, 15]: 20.4 µM

O=C1CC(=O)N(C23CC4CC(CC(C4)C2)C3)C(=O)N1CCc1ccc(Cl)cc1 [Compound 114]
IC50 [1, 13]: 3.2 µM
Selectivity [1, 14]: 0.8
IC50 [2, 15]: 2.6 µM

O=C1CC(=O)N(C23CC4CC(CC(C4)C2)C3)C(=O)N1CCc1cccc(Cl)c1 [Compound 115]
IC50 [1, 13]: 2.6 µM
Selectivity [1, 14]: 0.7
IC50 [2, 15]: 1.9 µM

O=C1CC(=O)N(C2C3CC4CC(C3)CC2C4)C(=O)N1CCc1ccc(Cl)cc1 (stereo not shown) [Compound 116]
IC50 [1, 13]: 2.5 µM
Selectivity [1, 14]: 18.3
IC50 [2, 15]: 40.4 µM

O=C1CC(=O)N(C2C3CC4CC(C3)CC2C4)C(=O)N1CCc1cccc(Cl)c1 (stereo not shown) [Compound 117]
IC50 [1, 13]: 1.6 µM
Selectivity [1, 14]: 2.0
IC50 [2, 15]: 3.1 µM
